Source: ChEMBL document CHEMBL1135758, “Toward a pharmacophore for drugs inducing the long QT syndrome: insights from a CoMFA study of HERG K(+) channel blockers” (J Med Chem, 2002)

What was measured:
[1] = target: T1, Voltage-gated inwardly rectifying potassium channel KCNH2 (Homo sapiens, UniProt Q12809); assay: K+ channel blocking activity in Chinese hamster ovary cells expressing HERG Kv11.1; assay type: functional, cell-based
[2] = target: T1, Voltage-gated inwardly rectifying potassium channel KCNH2; assay: (§1) K+ channel blocking activity in human embryonic kidney cells expressing HERG Kv11.1
[3] = target: T1, Voltage-gated inwardly rectifying potassium channel KCNH2; assay: as §1; assay type: functional, cell-based

T1 sequence (Q12809 whole entry): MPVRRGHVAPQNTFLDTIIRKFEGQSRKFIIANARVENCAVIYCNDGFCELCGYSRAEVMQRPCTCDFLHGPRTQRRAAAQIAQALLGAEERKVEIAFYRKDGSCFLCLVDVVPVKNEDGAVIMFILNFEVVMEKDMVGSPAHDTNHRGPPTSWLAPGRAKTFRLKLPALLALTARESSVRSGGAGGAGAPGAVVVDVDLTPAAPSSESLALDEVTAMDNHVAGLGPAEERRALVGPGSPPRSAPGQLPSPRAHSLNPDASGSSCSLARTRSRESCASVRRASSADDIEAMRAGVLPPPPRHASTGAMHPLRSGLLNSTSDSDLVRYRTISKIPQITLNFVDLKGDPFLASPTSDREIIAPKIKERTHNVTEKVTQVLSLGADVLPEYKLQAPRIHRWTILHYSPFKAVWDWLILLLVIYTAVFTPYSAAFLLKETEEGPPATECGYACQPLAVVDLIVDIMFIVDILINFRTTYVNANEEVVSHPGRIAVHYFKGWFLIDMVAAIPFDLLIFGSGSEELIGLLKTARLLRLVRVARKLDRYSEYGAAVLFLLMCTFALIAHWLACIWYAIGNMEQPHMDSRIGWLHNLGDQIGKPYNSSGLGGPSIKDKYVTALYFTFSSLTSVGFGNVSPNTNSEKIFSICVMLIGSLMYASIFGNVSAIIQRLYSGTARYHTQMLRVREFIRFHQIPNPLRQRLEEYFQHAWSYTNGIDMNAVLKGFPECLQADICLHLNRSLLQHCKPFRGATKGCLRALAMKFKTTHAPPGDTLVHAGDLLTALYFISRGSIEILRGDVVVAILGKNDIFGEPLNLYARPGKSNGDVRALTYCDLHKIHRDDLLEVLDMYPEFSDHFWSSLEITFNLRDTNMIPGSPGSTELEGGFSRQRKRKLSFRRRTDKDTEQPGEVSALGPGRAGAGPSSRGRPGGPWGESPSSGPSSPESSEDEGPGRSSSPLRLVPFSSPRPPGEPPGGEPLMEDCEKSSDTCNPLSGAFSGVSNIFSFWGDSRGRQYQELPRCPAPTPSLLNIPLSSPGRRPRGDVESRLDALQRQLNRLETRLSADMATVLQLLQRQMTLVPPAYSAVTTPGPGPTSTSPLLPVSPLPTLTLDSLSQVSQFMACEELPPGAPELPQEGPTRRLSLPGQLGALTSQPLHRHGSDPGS

SMILES | IC50 [1] [µM] | further results
CN1CCN(CCCCN2C(=O)CN(/N=C/c3ccc(-c4ccc(Cl)cc4)o3)C2=O)CC1 [AZIMILIDE] | 0.56 | 
COc1c(N2CCNC(C)C2)c(F)cc2c(=O)c(C(=O)O)cn(C3CC3)c12 (centres undefined) [GATIFLOXACIN] | 130 | 
CN(c1nccc(=O)[nH]1)C1CCN(c2nc3ccccc3n2Cc2ccc(F)cc2)CC1 [MIZOLASTINE] |  | IC50 [2]: 0.35 µM
C[C@@H]1CN(c2c(F)c(N)c3c(=O)c(C(=O)O)cn(C4CC4)c3c2F)C[C@H](C)N1 [SPARFLOXACIN] |  | IC50 [3]: 34.4 µM
